How the values were obtained:
C. difficile = test: Growth inhibition of C. difficile with 20 mM short or medium chain fatty acids; format: cell-based, Clostridioides difficile; settings: 20 mM fatty acid
Excerpt: Acetate is a C2 chain and they increase by one carbon until heptanoate is reached which is C7.
The inventors assessed a range of short/medium chain fatty acids (S/MCFA).

[1] = system: colonocyte cell line Caco2; test: MTT viability assay of Caco2 cells; format: cell-based; settings: 45 mM, 48 h
Method: A higher OD value represents greater viability.
The inventors determined to what extent the C5, C6 and C7 chain length fatty acids affect viability of the colonocyte cell line Caco2. Caco2 cells were grown until confluent in DMEM with serum and then trypsinised and diluted to 10^5 cells per ml and re-seeded into a 24 well plate and allowed to grow for a further 48 hours. At this point they were exposed to a 45 mM concentration of the SCFA or MCFA for 48 h and viability assessed using an MT assay.

CD 027 = test: Isovalerate inhibition of C. difficile growth; format: cell-based, Clostridioides difficile; settings: strain CD 027
Excerpt: (§1) The inventors tested the ability of isovalerate to inhibit C. difficile growth (FIG. 36).

CD012 = test: Isovalerate inhibition of C. difficile growth; format: cell-based, Clostridioides difficile; settings: strain CD012
Excerpt: as §1

CD010 = test: Isovalerate inhibition of C. difficile growth; format: cell-based, Clostridioides difficile; settings: strain CD010
Excerpt: as §1

Bacteroides vulgatus = test: Batch cultures of gut commensal with valerate (OD600); format: cell-based
Method: (§2) Vegetative cells were inoculated into sBHI broth containing varying concentrations of valerate (o, 1, 2, 3, 4, 5, 10, and 20 mM) and OD600 measurements were taken at 0, 2, 4, 6, and 8 hours. The change in OD600 (from a time point during the exponential phase) was plotted against the concentrations of valerate tested. (a) C. difficile ribotype 010, (b) C. difficile ribotype 012, (c) C. difficile ribotype 027, (d) Bacteroides uniformis, (e) Bacteroides vulgatus, (f) Clostridium scindens. Error bars represent the mean standard deviation, * p<0.05, ** p<0.01, *** p<0.001.
(§3) The inventors tested the effects of valerate (Fisher Scientific) on the vegetative growth of three C. difficile ribotypes (010, 012, and 027) as well as several gut commensal bacteria (Bacteroides uniformis, Bacteroides vulgatus, and Clostridium scindens). […] The inventors plotted the changes in OD600 (from a time point during the exponential phase) against each concentration of valerate tested. The inventors used ANOVA and Tukey post hoc test to determine whether the concentration of valerate tested affected the growth of the test isolate compared to batch cultures grown in the absence of valerate.
(§4) C. difficile DS1684 (ribotype 010, non-toxigenic strain) was used for chemostat model experiments. C. difficile DS1684, C. difficile CD630 (ribotype 012, virulent multidrug resistant strain), C. difficile R20291 (ribotype 027, a hypervirulent strain), Bacteroides uniformis, Bacteroides vulgatus, and Clostridium scindens (DSM 5676) were used in batch culture experiments. C. difficile ribotype 027 is a common ribotype in Europe and North America,^1-3 while ribotype 012 is one of the common ribotypes in mainland China.^4,5 CD630 and R20291 are genetically and phenotypically well-characterised and are good representatives of their ribotypes.^6 B. uniformis and B. vulgatus were isolated from the stool of a healthy person using fastidious anaerobe agar (Lab M, Heywood, UK) or nutrient agar (Sigma-Aldrich, St. Louis, USA), respectively.

Bacteroides uniformis = test: as above; format: cell-based; settings: only concentration that inhibited, p=0.026
Method: as §2, §3, §4

Clostridium scindens = test: as above; format: cell-based; settings: 0-20 mM valerate tested, p>0.05
Method: as §2, §3, §4

[2] = system: C. difficile ribotype 012; test: C. difficile batch cultures, vegetative growth with valerate (OD600); format: cell-based, Clostridioides difficile; settings: sBHI broth pH 6.8, p=0.003
Method: as §2, §3, §4

[3] = system: C. difficile ribotype 010; test: as above; format: cell-based, Clostridioides difficile; settings: sBHI broth pH 6.8, p=0.008
Method: as §2, §3, §4

[4] = system: C. difficile ribotype 027; test: as above; format: cell-based, Clostridioides difficile; settings: sBHI broth pH 6.8, p=0.008
Method: as §2, §3, §4

gut organoids = settings: 5 mM valerate; personal communication; cited from earlier work
[5] = system: 6 strains of C. difficile; test: Valerate inhibition of 6 strains of C. difficile (change in OD600); format: cell-based, Clostridioides difficile; settings: 0, 5, 10, 20 mM valerate
Excerpt: Error bars represent mean±SD. **p<0.01;[…] (ANOVA and Tukey post hoc test), N=12.
As there are many strains of the C. difficile pathogen, the inventors extended the range of strains to determine how valerate inhibited growth (FIG. 32), and have also assessed the ability of valerate to target other species of bacteria (FIG. 33).

SMILES: CCCCCCC(=O)O [heptanoate, heptanoic acid]
- inhibition of C. difficile growth (C. difficile): potent inhibitors
- potency at inhibiting growth relative to valerate (C. difficile): significantly more potent
- viability of colonocytes [1]: do not significantly decrease

SMILES: CCCCCC(=O)O [hexanoate, hexanoic acid]
- inhibition of C. difficile growth (C. difficile): potent inhibitors
- potency at inhibiting growth relative to valerate (C. difficile): significantly more potent
- viability of colonocytes [1]: significantly increased
- viability of colonocytes ([1]; listed as C6): do not significantly decrease

SMILES: CC(C)CC(=O)O [isovalerate]
- inhibition of C. difficile growth (CD 027): comparable to valerate
- inhibition of C. difficile growth (CD012): significant ability to inhibit growth
- inhibition of C. difficile growth (CD010): significant ability to inhibit growth

SMILES: CCCCC(=O)O [valerate, valeric acid]
- inhibition of growth by valerate (Bacteroides vulgatus; 0-20 mM valerate tested): not inhibited at any concentration
- growth in broths containing valerate (Bacteroides vulgatus; 10 mM (p=0.020) or 20 mM (p=0.019) valerate): grew better
- valerate concentration inhibiting growth (Bacteroides uniformis): 20 mM
- inhibition of growth by valerate (Clostridium scindens): not inhibited at any concentration
- inhibition of C. difficile growth (CD012): inhibited to a greater extent
- inhibition of C. difficile growth (CD010): inhibited to a greater extent
- valerate concentration inhibiting vegetative growth [2]: 2 mM
- valerate concentration inhibiting vegetative growth [3]: 4 mM
- valerate concentration inhibiting vegetative growth [4]: 2 mM
- inhibition of C. difficile growth (C. difficile): potent inhibitors
- cell death / alterations in gene expression (gut organoids): did not result in cell death or cause significant alterations in gene expression
- viability of colonocytes [1]: do not significantly decrease
- inhibition of growth of C. difficile strains [5]: effective against all strains

Source: patent US12397045B2, “Clostridioides difficile” (IMPERIAL COLLEGE OF SCIENCE, TECHNOLOGY AND MEDICINE, priority 2018, dated 2025)
